Source: ChEMBL document CHEMBL1909046, “DrugMatrix in vitro pharmacology data”

Assays:
[1] = target: C-C chemokine receptor type 2 (Homo sapiens, UniProt P41597); assay type: cell membranes, CHO-K1, Membrane; conditions: cho-k1; further: in other assays of this panel Not Active means under 50% inhibition at 10 µM
[2] = target: T1, C-X-C chemokine receptor type 1 (Homo sapiens, UniProt P25024); further: in other assays of this panel Not Active means under 50% inhibition at 10 µM
T1 sequence (P25024 whole entry): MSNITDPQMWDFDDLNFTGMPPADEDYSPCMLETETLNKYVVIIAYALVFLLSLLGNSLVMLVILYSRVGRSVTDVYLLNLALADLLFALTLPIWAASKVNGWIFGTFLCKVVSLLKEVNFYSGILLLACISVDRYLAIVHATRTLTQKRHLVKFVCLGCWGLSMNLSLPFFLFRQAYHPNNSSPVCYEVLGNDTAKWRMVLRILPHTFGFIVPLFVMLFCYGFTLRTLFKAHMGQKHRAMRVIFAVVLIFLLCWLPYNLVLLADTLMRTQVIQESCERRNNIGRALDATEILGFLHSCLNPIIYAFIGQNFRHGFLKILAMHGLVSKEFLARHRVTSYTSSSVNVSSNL

[3] = DRUGMATRIX: Glutamate, NMDA, Phencyclidine radioligand binding (ligand: [3H] TCP); assay type: cell membranes, Rattus norvegicus, Wistar, Cerebral cortex, Membrane; conditions: Not Active = under 50% inhibition at 10 µM
[4] = DRUGMATRIX: GABAA, Chloride Channel, TBOB radioligand binding (ligand: [3H] TBOB); assay type: cell membranes, Rattus norvegicus, Wistar, Cerebral cortex, Membrane; conditions: Not Active = under 50% inhibition at 10 µM
[5] = DRUGMATRIX: Glutamate, Kainate radioligand binding (ligand: [3H] Kainic acid); assay type: cell membranes, Rattus norvegicus, Wistar, Brain, Membrane; conditions: Not Active = under 50% inhibition at 10 µM
Progesterone receptor = target: T2, Progesterone receptor (Bos taurus, UniProt Q690N0); assay: DRUGMATRIX: Progesterone radioligand binding (ligand: [3H] R-5020); assay type: tissue-based, Uterus; conditions: Not Active = under 50% inhibition at 10 µM
T2 sequence (Q690N0 whole entry): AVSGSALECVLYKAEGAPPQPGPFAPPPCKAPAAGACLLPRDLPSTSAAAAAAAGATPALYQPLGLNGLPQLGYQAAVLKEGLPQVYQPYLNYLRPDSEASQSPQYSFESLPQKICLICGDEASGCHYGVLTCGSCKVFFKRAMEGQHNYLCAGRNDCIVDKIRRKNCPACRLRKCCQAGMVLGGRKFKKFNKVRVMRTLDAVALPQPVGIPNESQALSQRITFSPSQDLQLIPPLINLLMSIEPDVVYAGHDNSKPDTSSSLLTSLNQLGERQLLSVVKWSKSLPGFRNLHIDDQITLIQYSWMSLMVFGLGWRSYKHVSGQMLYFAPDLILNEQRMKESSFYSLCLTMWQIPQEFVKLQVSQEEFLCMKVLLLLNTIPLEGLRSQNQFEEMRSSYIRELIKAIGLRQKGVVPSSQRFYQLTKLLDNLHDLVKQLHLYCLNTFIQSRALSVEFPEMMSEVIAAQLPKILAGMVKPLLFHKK

[6] = target: T3, Alpha-1D adrenergic receptor (Homo sapiens, UniProt P25100); assay type: cell membranes, HEK293, Membrane; conditions: hek293; further: in other assays of this panel Not Active means under 50% inhibition at 10 µM
T3 sequence (P25100 whole entry): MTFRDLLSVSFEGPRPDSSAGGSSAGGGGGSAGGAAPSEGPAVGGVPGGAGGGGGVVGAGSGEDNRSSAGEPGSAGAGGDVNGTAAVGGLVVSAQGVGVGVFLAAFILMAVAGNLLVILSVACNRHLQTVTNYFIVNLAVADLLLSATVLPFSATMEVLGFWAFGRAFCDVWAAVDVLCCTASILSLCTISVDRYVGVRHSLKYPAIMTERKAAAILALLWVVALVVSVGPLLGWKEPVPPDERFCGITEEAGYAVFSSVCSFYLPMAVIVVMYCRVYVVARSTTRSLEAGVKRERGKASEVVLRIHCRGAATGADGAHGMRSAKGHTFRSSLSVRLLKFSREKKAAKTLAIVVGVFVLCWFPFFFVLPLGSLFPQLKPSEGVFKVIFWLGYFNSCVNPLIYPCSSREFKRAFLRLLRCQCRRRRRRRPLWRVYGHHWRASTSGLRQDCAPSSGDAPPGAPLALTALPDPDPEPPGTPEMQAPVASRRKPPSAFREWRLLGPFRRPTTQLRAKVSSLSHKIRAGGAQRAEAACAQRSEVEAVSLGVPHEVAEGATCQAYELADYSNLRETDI

Chain of C-C chemokine receptor type 2 (P41597 whole entry): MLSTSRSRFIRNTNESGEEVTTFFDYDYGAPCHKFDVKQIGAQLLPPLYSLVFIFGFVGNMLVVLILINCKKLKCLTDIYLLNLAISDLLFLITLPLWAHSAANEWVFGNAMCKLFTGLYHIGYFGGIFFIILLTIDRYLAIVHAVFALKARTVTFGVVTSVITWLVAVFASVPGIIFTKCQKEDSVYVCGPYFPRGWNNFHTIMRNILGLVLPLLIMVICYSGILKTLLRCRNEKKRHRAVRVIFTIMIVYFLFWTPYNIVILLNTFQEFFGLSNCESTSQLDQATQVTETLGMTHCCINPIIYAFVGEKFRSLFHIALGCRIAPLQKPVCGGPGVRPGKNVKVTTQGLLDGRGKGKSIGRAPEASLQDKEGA

CC(C)CN(C[C@@H](O)[C@H](Cc1ccccc1)NC(=O)O[C@H]1CCOC1)S(=O)(=O)c1ccc(N)cc1
Not Active: IC50 [1] | IC50 [2] | IC50 [3] | Ki [3] | IC50 [4] | Ki [4] | IC50 [5] | Ki [5] | IC50 (Progesterone receptor) | IC50 [6]

c1ccc(Nc2ccc(Nc3ccccc3)cc2)cc1
Not Active: IC50 [1] | IC50 [2] | IC50 [3] | Ki [3] | IC50 [4] | Ki [4] | IC50 [5] | Ki [5] | IC50 (Progesterone receptor) | IC50 [6]

COc1cc2c3cc1Oc1cc(ccc1O)C[C@@H]1c4c(cc(OC)c(O)c4Oc4ccc(cc4)C[C@@H]3N(C)CC2)CC[N+]1(C)C.[Cl-]
Not Active: IC50 [1] | IC50 [2] | IC50 [3] | Ki [3] | IC50 [4] | Ki [4] | IC50 [5] | Ki [5] | IC50 (Progesterone receptor) | IC50 [6]

NC(=O)N1c2ccccc2CCc2ccccc21
Not Active: IC50 [1] | IC50 [2] | IC50 [3] | Ki [3] | IC50 [4] | Ki [4] | IC50 [5] | Ki [5] | IC50 (Progesterone receptor) | IC50 [6]

O=C1CC[C@@H](N2C(=O)c3ccccc3C2=O)C(=O)N1
Not Active: IC50 [1] | IC50 [2] | IC50 [3] | Ki [3] | IC50 [4] | Ki [4] | IC50 [5] | Ki [5] | IC50 (Progesterone receptor) | IC50 [6]

Cc1onc(O)c1CC(N)C(=O)O (racemic) [(R,S)-AMPA]
Not Active: IC50 [1] | IC50 [2] | IC50 [3] | Ki [3] | IC50 [4] | Ki [4] | IC50 [5] | Ki [5] | IC50 (Progesterone receptor) | IC50 [6]

Cc1ccc2cc3c(ccc4ccccc43)c3c2c1CC3 [3-METHYLCHOLANTHRENE]
Not Active: IC50 [1] | IC50 [2] | IC50 [3] | Ki [3] | IC50 [4] | Ki [4] | IC50 [5] | Ki [5] | IC50 (Progesterone receptor) | IC50 [6]

CC[C@@]1(O)C[C@H](O[C@H]2C[C@H](N(C)C)[C@H](O[C@H]3C[C@H](O)[C@H](O[C@H]4CCC(=O)[C@H](C)O4)[C@H](C)O3)[C@H](C)O2)c2c(cc3c(c2O)C(=O)c2c(O)cccc2C3=O)[C@H]1C(=O)OC [ACLARUBICIN]
Not Active: IC50 [1] | IC50 [2] | IC50 [3] | Ki [3] | IC50 [4] | Ki [4] | IC50 [5] | Ki [5] | IC50 (Progesterone receptor) | IC50 [6]

Nc1nc2c(ncn2COCCO)c(=O)[nH]1 [ACYCLOVIR]
Not Active: IC50 [1] | IC50 [2] | IC50 [3] | Ki [3] | IC50 [4] | Ki [4] | IC50 [5] | Ki [5] | IC50 (Progesterone receptor) | IC50 [6]

Cc1c(C)c2c(c(C)c1O)CC[C@@](C)(CCC[C@H](C)CCC[C@H](C)CCCC(C)C)O2 [ALPHA-TOCOPHEROL]
Not Active: IC50 [1] | IC50 [2] | IC50 [3] | Ki [3] | IC50 [4] | Ki [4] | IC50 [5] | Ki [5] | IC50 (Progesterone receptor) | IC50 [6]

CN(C)c1nc(N(C)C)nc(N(C)C)n1 [ALTRETAMINE]
Not Active: IC50 [1] | IC50 [2] | IC50 [3] | Ki [3] | IC50 [4] | Ki [4] | IC50 [5] | Ki [5] | IC50 [6]

CN(C)CCCN1c2ccccc2Sc2ccc(Cl)cc21 [CHLORPROMAZINE]
Not Active: IC50 [1] | IC50 [2] | IC50 [3] | Ki [3] | IC50 [4] | Ki [4] | IC50 [5] | Ki [5] | IC50 (Progesterone receptor)

COc1cc2nc(N3CCN(C(=O)C4COc5ccccc5O4)CC3)nc(N)c2cc1OC (centres undefined) [DOXAZOSIN]
Not Active: IC50 [1] | IC50 [2] | IC50 [3] | Ki [3] | IC50 [4] | Ki [4] | IC50 [5] | Ki [5] | IC50 (Progesterone receptor)

CCCCc1nc(Cl)c(CO)n1Cc1ccc(-c2ccccc2-c2nnn[nH]2)cc1 [LOSARTAN]
Not Active: IC50 [2] | IC50 [3] | Ki [3] | IC50 [4] | Ki [4] | IC50 [5] | Ki [5] | IC50 (Progesterone receptor) | IC50 [6]

CCCN1C[C@H](CSC)C[C@@H]2c3cccc4[nH]cc(c34)C[C@H]21 [PERGOLIDE]
Not Active: IC50 [1] | IC50 [2] | IC50 [3] | Ki [3] | IC50 [4] | Ki [4] | IC50 [5] | Ki [5] | IC50 (Progesterone receptor)

Cc1ccc(N(CC2=NCCN2)c2cccc(O)c2)cc1 [PHENTOLAMINE]
Not Active: IC50 [1] | IC50 [2] | IC50 [3] | Ki [3] | IC50 [4] | Ki [4] | IC50 [5] | Ki [5] | IC50 (Progesterone receptor)
